{"source": "patent US20220395555A1", "about": "“Derivatives of antibiotics” (priority 2020, published 2022)", "test_system": "resistant strains of fungi (Candida spp., Microsporium, Trich. mentagrophytes, Aspergillus niger)", "test": "Antifungal activity on the resistant strains", "type": "cell-based", "conditions": "resistant fungal strains", "data": [{"compound": "C[C@@H]1[C@H](O)[C@@H](C)/C=C/C=C/C=C/C=C/C=C/C=C/C=C/[C@H](O[C@@H]2O[C@H](C)[C@@H](O)[C@H](N)[C@@H]2O)C[C@@H]2O[C@](O)(C[C@@H](O)C[C@@H](O)[C@H](O)CC[C@@H](O)C[C@@H](O)CC(=O)O[C@H]1C)C[C@H](O)[C@H]2C(=O)O", "note": "[amphotericin]", "values": [{"measurement": "antifungal activity, in words", "value": "did not exert antifungal activity"}]}, {"compound": "C[C@@H]1[C@H](O)[C@@H](C)/C=C/C=C/CC/C=C/C=C/C=C/C=C/C(O[C@H]2O[C@H](C)[C@@H](O)[C@H](N)[C@@H]2O)CC2O[C@](O)(CC(O)C(O)CCC(O)CC(O)CC(O)CC(=O)O[C@H]1C)CC(O)C2C(=O)O", "note": "(some centres unmarked) [nystatin]", "values": [{"measurement": "antifungal activity, in words", "value": "did not exert antifungal activity"}]}]}
